Reference: patent US7879835B2 (Korea Research Institute of Chemical Technology, priority 2004, dated 2011)

Legend:
[1] = In vitro pharmacokinetics: metabolic stability in liver microsome; type: in vitro ADME; conditions: human liver microsome 1 mg/ml, 20 μM compound; for half-life at 20 µM: liver microsomes
Protocol: Metabolic stabilities of the compounds of the Examples were examined by employing microsome samples prepared from the human liver.
Each 20 μM of the compounds were reacted with 1 mg/ml of liver microsome and the half-lives and one-hour stabilities of the compounds were determined.

[2] = system: osteoclast (TRAP-positive multinuclear cell) formation; assay: Inhibitory effect on osteoclast formation (TRAP staining); type: cell-based, mice; conditions: compared to control; for inhibition at 0.1 µM / inhibition at 0.3 µM / inhibition at 1 µM / inhibition at 3 µM: Mus musculus, Osteoclast, read-out: Osteoclast formation inhibitory effects (%); for inhibition at 0.1 µM: 0.1 μM (Table 4b); for inhibition at 0.3 µM: 0.3 μM (Table 4b); for inhibition at 1 µM: 1 μM (Table 4b); for inhibition at 3 µM: 3 μM (Table 4b); for Osteoclast formation inhibitory effects (%): 8 days culture with M-CSF and RANKL
Protocol: The inhibitory activities of the alpha-arylmethoxyacrylate derivatives prepared in the above Examples on the proliferation of osteoclasts were examined as follows.
First, a bone marrow sample containing osteoclast pregenitor cells was isolated as follows. After sacrificing 7 to 9 week-old female mice by cervical dislocation, femur and tibia were excised aseptically while removing soft tissues attached thereto, After cutting both ends of the long bones, 1 ml of an enzyme solution containing 0.1% collagenase (Gibco), 0.05% trypsin and 0.5 mM EDTA (Gibco) was injected into the bone marrow cavity at one end using a syringe with a 26-gauge needle, and the bone marrow was then collected. After stirring the recovered bone marrow for 30 min, the precipitated bone marrow cells were collected, and cultured in α-minimum essential medium (α-MEM) supplemented with 10% FBS for 24 hrs. Then, non-adherent cells, which are osteoclast pregenitors, were aliquoted onto a culture plate at a density of 2×10^5 cells per well, and cultured for 8 days in α-MEM supplemented with 20 ng/ml of macrophage-colony stimulating factor (M-CSF, Peprotech, USA), 30 ng/ml RANKL (Peprotech, USA), and 0.3, 1.0 or 3 μM of the compounds of the Examples. Control cells were cultured at the same condition except not adding the compounds of the Examples.
After cell culture for 8 days, the adherent cells were washed with PBS and fixed with citrate-acetate-formaldehyde for 5 min. The fixed cells were incubated at 37° C. for 1 hr in acetate buffer (pH 5.0) containing naphthol AS-BI phosphate, fast Garnet GBC solution and 7 mM tartrate buffer (pH 5.0) to conduct TRAP (tartrate-resistant acid phosphatase) staining.

MG-63 cells = assay: Cytotoxicity test against osteoblast (MTT); type: cell-based, human
Protocol: In order examine the toxicities of the compounds of the Examples against osteoclast pregenitors, pregenitor cells were aliquotted onto a 96-well microplate at a density of 2×10^5 cells per well, treated with 2, 4 and 8 μM of the test compounds, respectively, and cultured for 48 hrs in α-MEM supplemented with 20 ng/ml of M-CSF (Peprotech, USA) using 37° C. incubator (5% CO2). At 3 hrs before the culture was finished, 50 μl of MTT (3-(4,5-dimethylthiazol-2-yl)-2,5-diphenyltetrazolium bromide) solution (50 μg/ml) was added to each well. Upon completion of the cell culture, the supernatant was removed, and the precipitated dye was reacted with 100 μl of isopropanol/0.04 N HCl at room temperature for 30 min to dissolve it. The absorbances of the wells were measured at 550 nm, and the relative absorbance of each well relative to that of the control (set as 100) is shown in Table 6.
In order to examine the toxicity of the compounds of the Examples against osteoblasts, human osteosarcoma-derived cell line, MG-63 (ATCC No. CRL-1427) cells were treated with 0.1, 0.3, 1.0 and 3.0 μM of the compounds of the Examples, and cultured in DMEM supplemented with 10% FBS (fetal bovine serum).

[3] = In vivo pharmacokinetics using female mice (serum concentration, HPLC); conditions: I.V.; for clearance / Half-life / Vd: mouse, serum, iv; for clearance: read-out: CL (clearance) (converted); for Half-life: read-out: Half-life (converted); for Vd: read-out: Vd (volume of distribution)
Protocol: Female mice each weighing […] were divided into groups of 5 mice each. The mice were anesthetized with ether, catheterized in their femoral artery and vein, respectively, and administered with 0.5 mg/kg body weight of compounds 234 and 274, and 5 mg/kg body weight of compounds 388, 404 and 415, respectively, via intravenous injection. Alternatively, 15 mg/kg body weight of compound 274 and 10 mg/kg body weight of compound 234 were orally administered to the mice.
At 0, 5, 10, 15 and 30 minutes and 1, 2, 4, 6, 9 and 12 hours after the intravenous injection, or at 0, 10, 20 and 40 minutes and 1, 2, 4, 6, 9 and 12 hours after the oral administration, 0.3 ml blood samples were taken from the mice through femoral artery. The blood samples were kept on an ice bath for 30 minutes and centrifuged at 3,000 rpm for 10 minutes to obtain a supernatant (serum). The supernatant samples were stored at −20° C.
Standard solution: Compounds 234, 274, 388, 404 and 415 were respectively dissolved in methanol to a concentration of 1 mg/ml to obtain stock solutions. The stock solutions were diluted with methanol to obtain standard solutions having concentrations of 40, 20, 10, 2, 1, 0.5, 0.2, 0.05 and 0.02 μg/ml, respectively.
Standard calibration curve: A stand calibration curve was prepared by employing calibration concentrations of 0.002, 0.005, 0.02, 0.05, 0.1, 0.2, 1, 2 and 4 μg/ml.
10 μl each of the standard solutions prepared above was added to 100 μl of normal serum sample and diluted 10 times. 250 μl of acetonitrile was added to the resulting dilution and the mixture was centrifuged for 10 minutes to obtain a supernatant. 300 μl of the supernatant was dried by evaporation under a nitrogen atmosphere and reconstituted by adding 50 μl of methanol. 20 μl of the resulting solution was analyzed by HPLC to prepare a standard calibration curve. HPLC was performed with Shimadzu ODS2 column (4.6×250 mm, 5 μm by employing a mixture of methanol/water (90/10 (v/v)) as the mobile phase at a flow rate of 1.2 ml/min, and measuring the absorbance at 240 nm.
Extraction: 100 μl of the serum sample obtained in (4-2-1) was put into a 1 ml microtube and 10 μl of methanol was added thereto. 250 μl of acetonitrile was added to the microtube and the mixture was centrifuged for 10 minutes to obtain a supernatant. 300 μl of the supernatant was dried by evaporation under a nitrogen atmosphere and reconstituted by adding 50 μl of methanol. 20 μl of the resulting solution was analyzed by the HPLC method as above.
Average concentrations of the compounds in the serum samples were plotted in a semi-log scale against the time lapsed after the administration, and the pharmacokinetic parameters were determined as a non-compartment open model by employing WinNonlin® program (Pharsight Corporation).

osteoclasts = assay: Inhibitory effect on resorption activity of osteoclast (resorption pit area on calcium phosphate-coated plate); type: cell-based, mice; conditions: compared to control
Protocol: After finishing culture, the plate was washed with distilled water, and 50 μl/well of 5% sodium hypochlorite was added to the plate. The plate was let alone for 5 min, washed again with distilled water to remove the adherent cells, and dried at room temperature. Then, the area of formed resorption pits was calculated by means of Image Pro Plus software (Media Cybernetics Ver. 3.0).

rats = assay: In vivo acute toxicity test (LD50); conditions: single dose, 2 weeks observation
Protocol: In order to determine the acute toxicities of the compounds prepared in Examples, 6-week old specific pathogen-free (SPF) rats each weighing […] were divided into groups of 10 rat each.
In case of subcutaneous administration, each of the compounds was dissolved in 5% PEG400 solution to a concentration of 20 mg/ml, the resulting solution was serially diluted with 5% PEG400 solution to concentrations of 5, 2.5, 1.25 and 0.625 mg/ml, and the dilutions were subcutaneously injected once to the rats at a dose of 10 ml/kg body weight.
In case of oral administration, each of the compounds was dissolved in soybean oil to a concentration of 180 mg/ml, the resulting solution was serially diluted with soybean oil to concentrations of 80, 20 and 5 mg/ml, and the dilutions were orally administered once to the rats at a dose of 20 ml/kg body weight. […]
During 2 weeks after the administration of the compounds, the death rate, clinical symptoms and weight changes of the rats were observed, and hematological and biochemical tests on blood samples were performed. Then, the rats were sacrificed and the internal organs were visually examined to check any abnormal signs in the organs of chest and abdomen.

Row | Structure (SMILES) | half-life at 20 µM [1] | inhibition at 0.1 µM [2] | inhibition at 0.3 µM [2] | inhibition at 1 µM [2] | inhibition at 3 µM [2] | relative absorbance (MTT) relative to control (set as 100) (MG-63 cells; 0.33 μM compound) | relative absorbance (MTT) relative to control (set as 100) (MG-63 cells; 1 μM compound) | relative absorbance (MTT) relative to control (set as 100) (MG-63 cells; 3 μM compound) | further results
1 | CO/C=C(/C(=O)OC)c1ccc(Cl)cc1COc1cccc(N2CCOCC2)c1 [Compound No. 386, (E)-methyl-2-[2-((3-morpholinophenoxy)methyl)-4-chlorophenyl]-3-methoxyacrylate] | 40.7 min | 100% | 100% | 100% | 100% | 101 | 69 | 68 | 
2 | CO/C=C(/C(=O)OC)c1ccccc1COc1cccc(CN2CCOCC2)c1 [Compound No. 404, (E)-methyl-2-[2-((3-(morpholinomethyl)phenoxy)-methyl)phenyl]-3-methoxyacrylate] | 57.4 ± 2.3 min |  | 9% | 63% | 100% | 83 | 92 | 94 | AUC (area under the curve of blood concentration versus time) [3]: 97.2 ± 14.8 µg·h/mL; clearance [3]: 0.0567 mL/min; Half-life [3]: 612 ± 114 min; Vd [3]: 0.0462 ± 0.0064 L/kg
3 | CO/C=C(/C(=O)OC)c1ccccc1COc1cccc(N2CCCC2)n1 [Compound No. 415, (E)-methyl-2-[2-((6-(pyrrolidin-1-yl)pyridin-2-yloxy)-methyl)phenyl]-3-methoxyacrylate] | 24.9 min | 5% | 57% | 100% | 100% |  |  |  | AUC (area under the curve of blood concentration versus time) [3]: 176.4 ± 32.9 µg·h/mL; clearance [3]: 0.0317 mL/min; Half-life [3]: 647 ± 96.6 min; Vd [3]: 0.027 ± 0.0012 L/kg
4 | CO/C=C(/C(=O)OC)c1ccccc1COc1ccc(N(C)CC(C)C)cc1F [Compound No. 426, (E)-methyl-2-[2-((4-(N-isobutyl-N-methylamino)-2-fluorophenoxy)methyl)phenyl]-3-methoxyacrylate] | 42.7 ± 2.1 min | 25% | 100% | 100% | 100% |  |  |  | 
5 | CO/C=C(/C(=O)OC)c1ccccc1COc1ccc(C2OCCCO2)cc1 [compound 161] |  |  |  |  |  |  |  |  | Half-life [1]: 45.6 min; One-hour stability [1]: 40%; Reduction (%) of the resorption pit area of osteoclasts (osteoclasts; 0.3 uM): 94%; Reduction (%) of the resorption pit area of osteoclasts (osteoclasts; 1 uM): 100%; Reduction (%) of the resorption pit area of osteoclasts (osteoclasts; 3 uM): 100%; Osteoclast formation inhibitory effects (%) ([2]; 0.3 μM): 19%; Osteoclast formation inhibitory effects (%) ([2]; 1.0 μM): 100%; Osteoclast formation inhibitory effects (%) ([2]; 3.0 μM): 100%
6 | CO/C=C(/C(=O)OC)c1ccccc1COc1cccc(C(C)F)c1 (centres unmarked) [compound 169] |  |  |  |  |  |  |  |  | LD50 (rats; PO): >1000 mg/kg body weight; LD50 (rats; SC): 10 mg/kg body weight
7 | CO/C=C(/C(=O)OC)c1ccccc1COc1cccc(N2CCN(C)CC2)c1 [compound 391] | 107 ± 18.6 min |  | 4% | 50% | 100% | 104 | 99 | 111 | 
8 | CO/C=C(/C(=O)OC)c1ccc(Cl)cc1COc1ccc(N2CCOCC2)cn1 [compound 394] | 55.5 ± 12 min | 0% | 98% | 100% | 100% | 113 | 105 | 110 | 
9 | CO/C=C(/C(=O)OC)c1ccccc1COc1ccc(N2CCCCC2)cc1 [compound 399] | 43 ± 1.8 min | 0% | 70% | 100% | 100% | 96 | 76 | 65 | 
10 | CO/C=C(/C(=O)OC)c1ccccc1COc1ccc(N2CCCCC2)c(F)c1 [compound 416] | 43.9 min | 0% | 75% | 100% | 100% |  |  |  | 
